Consider five molecules from patent US10335482B2, “Method of inducing an anti-HIV-1 immune response comprising administering a C5/TM-GP41 peptide dimer” (priority 2012, dated 2019).

Data set [1] concerns Anti-C5/gp41 sera from BI400-B immunized rabbits. Put plainly: Competitive ELISA for rabbit sera after immunization with BI400-B. Type of data set: binding. As to conditions: antigen 10-1000 μM preincubated with rabbit serum; FIG. 3. On the procedure:
50-100 μl of a mixture of BI400-015 and -201 (pre-incubated in Coating buffer—0.05M Na2CO3 pH9.6; denoted CB—in cold at 16 μg/ml for each peptide 1-3 days prior to coating) or just CB (background control) was used for coating wells in microtiter plates at 4° C. overnight. Plates were then washed 3× with washing buffer (PBS+1% v/v Triton-X100; denoted WB), followed by 2 h blocking at room temperature (RT) with 200 μl/well of blocking buffer (PBS+1% w/v BSA). Plates were then washed 3× with WB, followed by 1 h incubation at 37° C. with 60-100 μl/well of added rabbit serum samples (diluted 1:10-1:250 final concentration) preincubated together (4° C. overnight) with serial dilutions (ranging from 10-1000 μM final concentration) of 400-SEQ.B, BI400-015, BI400-201, BI400-204d, recombinant gp41 (Shin-Won Scientific, SWO 102 gp41), BI301-23 (irrelevant protein; control), no peptide (i.e. PBS; control), LTNP-sera pools (diluted 1:10 final concentration), or Blood donor sera-pools (diluted 1:10 final concentration; control). Plates were then washed 6× with WB, followed by 1 h incubation at RT with 70 μl/well of Alkaline Phosphatase-conjugated Goat-anti-Rabbit-Ig (6 μg/ml; Dako D0487). […] Plates were finally quenched by adding 100 μl/well of Quench solution (0.1M TRIS+0.1M EDTA+0.5M NaOH+0.01% w/v NaN3; pH14), followed by ELISA reader (ASYS UVM 340) at 550 nm.
(ELISA stands for enzyme-linked immunosorbent assay.)

Data set [2] has as its system HIV specific T-cells. As to conditions: IMiD present during stimulation with dendritic cells presenting Gag- or Nef-specific peptides; cited from earlier work.
Data set [3] can be described thus: Toxicity of the dipeptide in mice. Type of data set: in vivo, NMFI female mice. As to conditions: injection, 100 μg per kg bodyweight, 4 mg/ml in 0.9% NaCl. On the procedure:
The dipeptide of Example 20 was diluted in 0.9% NaCl to a test solution concentration of 4 mg/ml. The peptide was administered by injection to NMFI female mice in a dose of 100 μg per kg bodyweight.

Bridge positions count the residues as written; N and C are the ends. Ends that are not written are not given here. I, II: the chains in the order shown.

For “201: gp41 peptide (DRPEGIEEEGGERDR) [compound 201]”, in data set [1], the “inhibition of antibody binding to C5/gp41 (015/201) by antigen” value is given as “could be inhibited”.

`Nc1cccc2c1CN(C1CCC(=O)NC1=O)C2=O` (centres unmarked) [Lenalidomide]: the “function of the T-cells” value in data set [2] was “a number of improvements in the function of the T-cells”.

As to `Nc1cccc2c1C(=O)N(C1CCC(=O)NC1=O)C2=O` (centres unmarked) [pomalidomide], in data set [2], the “function of the T-cells” value is “a number of improvements in the function of the T-cells”.

Take “GGAIVNGSLADDDIVI [204d, peptide derived from C2]”: in data set [1], the “inhibition of antibody binding to C5/gp41 (015/201) by antigen” value is reported as “could be inhibited”.

For “I: WIIPGLNPLVGGGKLYSPTSILCG-NH2 / II: KALGPGATLQTPWTACQGVG-NH2 (disulfide I:23-II:16) [Example 20]”, the toxicological effects entry in data set [3] is “No toxicological effects were observed”.
